Data set [1] in a line: acute toxicity test in mice by intravenous administration. Particulars: mouse, in vivo.
The target in data set [2] is T1, elastase from human neutrophil (Homo sapiens, UniProt P08246).
T1 construct: using elastase from human neutrophil; from tissue; host or cells: human neutrophil
T1 sequence (P08246 30-247 limits assumed): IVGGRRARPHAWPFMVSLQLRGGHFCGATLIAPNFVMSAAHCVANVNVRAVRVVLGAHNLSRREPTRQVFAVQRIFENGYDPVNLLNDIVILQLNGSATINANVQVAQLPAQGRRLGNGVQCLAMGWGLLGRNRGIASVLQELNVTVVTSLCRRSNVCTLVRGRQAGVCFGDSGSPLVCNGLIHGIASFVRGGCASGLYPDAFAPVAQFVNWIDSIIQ
The data set can be described thus: Inhibitory effect on elastase (spectrophotometric method, substrate Suc-Ala-Pro-Ala-pNA). The format is biochemical. Particulars: for IC50: pH 8.0, 37° C., 30 minutes.
Description: The test was carried out by the slight modification of the method of Bieth et al [see Biochem. Med., 75, 350 (1974)] using elastase from human neutrophil.
The reaction mixture consisted of 1 mM Suc-Ala-Pro-Ala-pNA (dissolving in N-methylpyrrolidone to the concentration of 100 mM, and then adding 1/100 amount of the solution to the reaction mixture.), 0.1 M buffer solution of tris-hydrochloric acid (pH 8.0), 0.2 M sodium chloride aqueous solution, the sample solution of various concentrations and enzyme solution in a final volume of 1.0 ml was incubated at 37° C. for 30 minutes.
The reaction was stopped by the addition of 100 μl of 50% acetic acid into the reaction mixture, and then p-nitro anilide released was measured on absorbance of 405 nm.
Inhibition percentage of the test compounds was caliculated by the following equation: [formula]

Setting [3] is: Y represents a sulfur atom, read-out: Elastase Inhibitory Effect, IC50.
The mark [4] stands for this setting: at 50 μg/ml, Y represents a sulfur atom, read-out: Elastase Inhibitory Effect, Inhibition %.
Where [5] appears, read: Y represents an oxygen atom, read-out: Inhibitory Effect on Elastase, IC50.

The structures appear in SMILES notation. Where two headings read alike, the source gives them in different places.

The LD50 is the dose at which mortality reaches 50%. The low end stands for a more toxic substance, the high end for a less toxic substance. By IC50 is commonly meant the concentration at which inhibition is half-maximal. Usually inhibition stands for the change of the read-out against control, counted positive when it falls.

Molecule `CCN(CC)S(=O)(=O)c1ccc(SC(=O)c2ccc(NC(=N)N)cc2)cc1Cl` yielded an LD50 in data set [1] of 50 to 150 mg/kg.

Regarding `N=C(N)Nc1ccc(C(=O)Sc2cc(Cl)ccc2Cl)cc1` [Example 135, p-guanidinobenzoic acid 2,5-dichlorothiophenyl ester methanesulfonate], the IC50 in data set [2] (setting [3]) came to 0.1 µM. The inhibition at 50 µg/mL in data set [2] (setting [4]) amounted to 92.1%. Besides, the median lethal dose (LD50) in data set [1] is 50 to 150 mg/kg.

Take `N=C(N)Nc1ccc(C(=O)Oc2cc(Cl)ccc2Cl)cc1` [Example 37]: the concentration for half-maximal inhibition (IC50) in data set [2] (setting [5]) came to 1.1 µM. Also, 100 µM produced 85.8% inhibition in data set [2] (Y represents an oxygen atom). The molecule also came in with an LD50 in data set [1] of 50 to 150 mg/kg.

With `N=C(N)Nc1ccc(C(=O)Sc2cc(O)cc(Cl)c2)cc1` [3-chloro-5-hydroxy (Y = sulfur atom)], the LD50 in data set [1] was 50 to 150 mg/kg.

Take `CC(=O)O.CCS(=O)(=O)Oc1cc(Cl)cc(OC(=O)c2ccc(NC(=N)N)cc2)c1` [Example 75, p-guanidinobenzoic acid 3-chloro-5-ethanesulfonyloxyphenyl ester acetate]: in data set [2] (setting [5]), the IC50 was 1.1 µM. Besides, the LD50 in data set [1] was in the range of 50 to 150 mg/kg.

`N=C(N)Nc1ccc(C(=O)Oc2ccccc2)cc1` [hydrogen, reference compound]: the inhibition at 50 µg/mL in data set [2] (at 50 μg/ml (footnote 2), Y represents an oxygen atom, read-out: Inhibitory Effect on Elastase, Inhibition %) was 54.6%. The molecule also returned an LD50 in data set [1] of 50 to 150 mg/kg.

Turning to `CCN(CC)S(=O)(=O)c1ccc(OC(=O)c2ccc(NC(=N)N)cc2)cc1Cl` [Example 94], the IC50 in data set [2] (setting [5]) came to 22 µM. This molecule also returned a median lethal dose (LD50) in data set [1] of 50 to 150 mg/kg.

For `CS(=O)(=O)O.N=C(N)Nc1ccc(C(=O)Oc2cc(O)cc(Cl)c2)cc1` [Example 112, p-guanidinobenzoic acid 3-chloro-5-hydroxyphenyl ester methanesulfonate], the 50% inhibitory concentration (IC50) in data set [2] (setting [5]) turned out to be 8.3 µM. Besides, the median lethal dose (LD50) in data set [1] lay within 50 to 150 mg/kg.

In data set [1], `CCS(=O)(=O)Oc1cc(Cl)cc(SC(=O)c2ccc(NC(=N)N)cc2)c1` returned a 50% lethal dose (LD50) of 50 to 150 mg/kg.

As for `CS(=O)(=O)Oc1cc(Cl)cc(OC(=O)c2ccc(NC(=N)N)cc2)c1` [Example 74], the half-inhibitory concentration (IC50) in data set [2] (setting [5]) came to 1 µM.

Regarding `Cc1cccc(SC(=O)c2ccc(NC(=N)N)cc2)c1` [Example 126], in data set [2] (setting [3]), the half-maximal inhibitory concentration (IC50) is 5 µM. In addition, the inhibition at 50 µg/mL in data set [2] (setting [4]) was found to be 89.7%.

In the case of `Cc1ccc(OC(=O)c2ccc(NC(=N)N)cc2)cc1` [Example 4-methyl, reference compound], in data set [2] (Y represents an oxygen atom), testing at 100 µM gave an inhibition of 28.4%.

The molecule `CC(=O)Oc1ccc(OC(=O)c2ccc(NC(=N)N)cc2)cc1` [Example 60] yielded an inhibition at 100 µM in data set [2] (Y represents an oxygen atom) of 27.8%.

Consider `CC(=O)c1cc(OC(=O)c2ccc(NC(=N)N)cc2)cc(OC(=O)c2ccc(NC(=N)N)cc2)c1` [Example 66], for which, in data set [2] (setting [5]), the IC50 is 72 µM.

As to `N=C(N)Nc1ccc(C(=O)Oc2ccc(S(=O)(=O)N3CCOCC3)cc2)cc1` [Example 101], in data set [2] (Y represents an oxygen atom), testing at 100 µM gave an inhibition of 34.9%.

For `N=C(N)Nc1ccc(C(=O)Oc2cccc(OC(=O)c3ccc(NC(=N)N)cc3)c2)cc1` [Example 64], the half-inhibitory concentration (IC50) in data set [2] (setting [5]) was 15 µM.

Consider `N=C(N)Nc1ccc(C(=O)Oc2ccc(C(=O)c3ccccc3)c(Cl)c2Cl)cc1` [Example 57], for which, in data set [2] (Y represents an oxygen atom), testing at 100 µM gave an inhibition of 50.5%.

In the case of `COc1cc(OC(=O)c2ccc(NC(=N)N)cc2)cc(OC(=O)c2ccc(NC(=N)N)cc2)c1` [Example 69], in data set [2] (setting [5]), the 50% inhibitory concentration (IC50) was 1.6 µM.

Consider `N=C(N)Nc1ccc(C(=O)Oc2ccccc2C(F)(F)F)cc1` [Example 45], for which the concentration for half-maximal inhibition (IC50) in data set [2] (setting [5]) was 23 µM. In addition, in data set [2] (Y represents an oxygen atom), the inhibition at 100 µM stood at 72.4%.

For the molecule `COC(=O)c1cc(O)cc(OC(=O)c2ccc(NC(=N)N)cc2)c1` [Example 111], in data set [2] (Y represents an oxygen atom), testing at 100 µM gave an inhibition of 45%.

As to `N=C(N)Nc1ccc(C(=O)Sc2ccccc2)cc1` [Example 124], in data set [2] (setting [3]), the IC50 was found to be 2.1 µM. In data set [2] (setting [4]), the inhibition at 50 µg/mL was found to be 94%. Also, in data set [1], the LD50 fell in the range of 50 to 150 mg/kg.

The record behind these values is patent US5247084A, “Derivatives of p-guanidinobenzoic acid” (priority 1985, dated 1993).
